Test results taken from US6939860B2, “Composition and method for treatment of neoplastic diseases associated with elevated matrix metalloproteinase activities using catechin compounds” (priority 2002, dated 2005).

Experiments:
[1] = system: Human Breast Cancer Cells MDA-MB 231; test: Cell proliferation study (MTT stain), breast cancer cells; conditions: MDA-MB 231, 4 days
Experimental: To study the effects of catechins and dietary composition on cell proliferation of human cancer cells, various human cancer cell lines were cultured in 24 well plates using the culture conditions specified by ATCC (supplier of cell lines). The cells were generally incubated for 3 to 4 days (before coalescence was reached). The total number of cells in a culture well was determined by staining the cells with vital stain (MTT) followed by the determination of OD of the stain solution. MTT only stain the dead cells and the amount of stain uptake correlates with the number of dead cells in the culture. Percent inhibition was calculated by comparing the OD of the treatment groups with the OD of the control groups. In these studies, 5×10^4 breast cancer cells (MDAMB 231) were seeded in each of the wells of 24-well plate. […] Plates were incubated in ambient air (without supplemental CO2) for a period of 4 days. At the end of the period, the culture media were withdrawn and the cells in each well were stained with MTT. Excess MTT stain was washed off. The MTT stained cancer cells were dissolved in 1 ml DMSO solution. The optical density (OD) of the solution was determined for each well. The OD for the well was directly proportional to the number of dead cells. The OD of the MTT stained cancer cells that were previously cultured in the absence of EGCGT was used as a reference and was considered as 100. Percent inhibition was calculated by using the formula: % Inhibition=(OD of Reference−OD of the Test Treatment)/OD of Reference×100%.

[2] = system: MMP9; test: Zymogram of culture media from Matrigel invasion assay, MMP9; type: cell-based, Human; conditions: media of MDA MB 231 Matrigel invasion assay
Experimental: (§1) The media (25-30 μl) from Matrigel Invasion studies was applied to Novex zymogram gels (Invitrogen). The gel plates were developed and stained as recommended by the manufacturer. The matrix-metalloproteinases (MMPs) bands were identified on the basis of their known molecular weights.
(§2) The media from various treatments in the Matrigel Invasion assay (Example 4) were applied to Novex Zymogram Gel (Invitrogen). The plates were developed and stained as recommended by the manufacturer. The matrix metalloproteinases (MMPs) bands were identified on the basis of their known molecular weights (FIG. 6).

[3] = system: Human breast cancer cells (MDA MB 231); test: Matrigel invasion assay, breast cancer cells; type: cell-based; conditions: EGCG 50 μg/ml alone, MDA MB 231, 18 hours
Experimental: The Matrigel Invasion studies were conducted using Matrigel (Becton Dickinson) inserts in compatible 24 well plates. This assay is a reliable assay for evaluating cancer metastasis.
Human fibroblast cells were seeded and grown in the 24-well plates using culture media containing ˜10% serum. When the fibroblasts reached coalescence, the culture media with serum was withdrawn and replaced with fresh media without serum. A combination of catechin compounds plus dietary composition were added to the media without serum and human cancer cells were seeded on the upper surface of the Matrigel inserts.
After 18 hours, the media were withdrawn. Some media were saved for zymogram studies. The cells on the upper surface of the inserts were gently scrubbed away with cotton swab. The cells that had penetrated the Matrigel membrane and had migrated into the lower surface of the Matrigel were stained with Quick Stain and were counted under a microscope.
The general procedure for Matrigel Invasion Assay has been described above. In this assay, human breast cancer cells (5×10^4) were seeded on each insert. Various supplements were added to Leibovitz's media. The plates were incubated in an incubator in ambient air without supplemental CO2.

[4] = system: MMP2; test: Zymogram of culture media from Matrigel invasion assay, MMP2; type: cell-based, Human
Experimental: as §1, §2

O=C(O[C@@H]1Cc2c(O)cc(O)cc2O[C@@H]1c1cc(O)c(O)c(O)c1)c1cc(O)c(O)c(O)c1 [EGCG, (−)-epigallocatechin-3-gallate]
inhibition of cell proliferation ([1]; EGCG 10 ug/ml): did not inhibit
inhibition of cell proliferation ([1]; EGCG 20 μg/ml alone): 3%
inhibition of cell proliferation ([1]; EGCG 50 μg/ml): 34%
inhibition of cell proliferation ([1]; EGCG 100 μg/ml): 66%
inhibition of cell proliferation ([1]; EGCG 200 μg/ml): 70%
production of MMP9 (zymogram) ([2]; EGCG 20 ug/ml): completely inhibited
activity of MMP9 (zymogram) ([2]; EGCG 50 μg/ml): completely inhibited
activity of MMP9 (zymogram) ([2]; EGCG 100 ug/ml): completely inhibited
inhibition of Matrigel invasion [3]: ~100%
production of MMP2 (zymogram) ([4]; EGCG 20 ug/ml, media of MDA MB 231 Matrigel invasion assay): reduced
activity of MMP2 (zymogram) ([4]; EGCG 50 μg/ml, media of MDA MB 231 Matrigel invasion assay): completely inhibited
activity of MMP2 (zymogram) ([4]; EGCG 100 ug/ml, media of MDA MB 231 Matrigel invasion assay): completely inhibited
activity of MMP2 secreted by breast cancer cells (zymogram) ([4]; FIG. 6 legend, concentration not given): decreases
